Laboratory results published in publication PMC5400620, “Preclinical therapeutic efficacy of a novel blood-brain barrier-penetrant dual PI3K/mTOR inhibitor with preferential response in PI3K/PTEN mutant glioma” (Oncotarget, 2017).

How the values were obtained:
U87 xenografts = test: U87 intracranial xenograft, DS, TMZ or DS + TMZ; conditions: U87 xenograft-bearing nude mice, TMZ 7.5 mg/kg
Experimental: Data are presented as the mean ± SD of three experiments. […] D, Kaplan–Meier survival curves comparing the treatments using log-rank tests. DS and TMZ were compared with the control group, and DS + TMZ was compared with the control group, TMZ alone, and DS alone. E, Representative H&E-stained whole brain sections at 4 weeks after treatment. […] The tissue sections were incubated with antibodies against Ki-67.
To evaluate the long-term antitumor effect of the TMZ/DS combination, we further assessed the effects of TMZ, DS, or the combination treatment on the survival rate of U87 xenograft-bearing nude mice, which indirectly reflected the survival of tumor-bearing mice relative to their tumor burden.

[1] = tested on: glioma cell lines U87 and U251; test: cell viability with DS, TMZ and the combination; type: cell-based; conditions: Homo sapiens, U-251, TMZ 200 μM, DS 200 nM, alone or combined
Experimental: To investigate the ability of DS to modify the response of glioma cells to TMZ treatment, we evaluated the effects of TMZ (200 μM) alone, DS (200 nM) alone, and a combination of both TMZ and DS on the viability of the glioma cell lines U87 and U251 (Figure 5A).
The antiproliferative effect of DS on cells growing in culture was determined using the CellTiter-Blue (Promega, Madison, WI) viability assay. The mean drug concentration required to inhibit cell proliferation by 50% (IC50) compared with vehicle-treated controls was calculated using CalcuSyn Version 2.0 software (Great ShelfordCambridge, United Kingdom).

U87 GFP-LC3 cells = test: GFP-LC3 puncta detection (autophagy); type: cell-based, human; conditions: TMZ 125 μM, DS 100 nM, control 2%
Text: To investigate the effects of DS, TMZ, or the TMZ/DS combination on autophagy in glioma cells, we transfected cells with GFP-LC3 constructs in addition to various drug treatment and control treatment regimens and examined the accumulation of punctate GFP-LC3 structures using fluorescence microscopy. During autophagy, LC3-II relocalizes to the autophagosomal membranes. Thus, the accumulation of GFP-LC3 puncta provides an effective way to detect autophagosomes. In control cells, GFP-LC3 punctate structures were not detected, but large numbers of GFP-LC3 punctate structures were found in cells treated with DS or TMZ (Figure 5C). […] Strikingly, the combination of DS and TMZ further induced autophagy in up to 50% of U87 cells.
U87 GFP-LC3 cells were analyzed by using a fluorescence microscope, and the percentage of cells displaying GFP-LC3-positive puncta was quantified by counting 5 random fields in 3 independent experiments.

Compound: Cn1nnc2c(C(N)=O)ncn2c1=O [TMZ, temozolomide, reference compound]
- tumor burden compared with control groups (U87 xenografts): did not reduce the tumor burden
- viability at 200 µM [1]: 93%
- cells with induced autophagy (GFP-LC3 puncta) (U87 GFP-LC3 cells): 10%
